Source: the NIST ThermoML archive (doi:10.1021/je8003723)

Key:
[1] = xn = mol fraction of the nth substance listed; conditions: 308.15 K, 101 kPa, Liquid; for viscosity: Capillary tube (Ostwald / Ubbelohde) method; for mass density: Pycnometric method; for speed of sound: Sing-around technique in a fixed-path interferometer
[2] = 308.15 K, 101.3 kPa, Liquid; for viscosity: Capillary tube (Ostwald / Ubbelohde) method; for mass density: Pycnometric method; for speed of sound: Sing-around technique in a fixed-path interferometer

N#CCc1ccccc1 [benzeneacetonitrile] + CCC(C)=O
[1]
Conditions | mass density [kg/m3] | speed of sound [m/s] | viscosity [mPa·s]
x1 = 0.0205 | 796.1 | 1167 | 0.334
x1 = 0.1218 | 825.9 | 1208 | 0.412
x1 = 0.2283 | 854 | 1265 | 0.497
x1 = 0.3188 | 876.8 | 1308 | 0.583
x1 = 0.4403 | 905.5 | 1356 | 0.72
x1 = 0.5655 | 931.3 | 1397 | 0.868
x1 = 0.6706 | 950.7 | 1421 | 1.015
x1 = 0.8086 | 974.1 | 1454 | 1.228
x1 = 0.9657 | 998.1 | 1497 | 1.498
x1 = 1 | 1003.2 | 1518 | 1.585

N#CCc1ccccc1 [benzeneacetonitrile] + CCCC(C)=O
[1]
Conditions | mass density [kg/m3] | speed of sound [m/s] | viscosity [mPa·s]
x1 = 0.0221 | 797 | 1189 | 0.41
x1 = 0.1416 | 826.8 | 1228 | 0.495
x1 = 0.2622 | 856 | 1271 | 0.6
x1 = 0.3564 | 877.5 | 1313 | 0.685
x1 = 0.4811 | 904.2 | 1363 | 0.819
x1 = 0.6125 | 931.5 | 1394 | 0.976
x1 = 0.7133 | 950.9 | 1418 | 1.1
x1 = 0.8389 | 974.8 | 1456 | 1.29
x1 = 0.9736 | 998.6 | 1499 | 1.509
x1 = 1 | 1003.2 | 1518 | 1.585

CCC(C)=O [butanone]
[2]
Conditions | mass density [kg/m3] | speed of sound [m/s] | viscosity [mPa·s]
– | 789.2 | 1157 | 0.316

CCC(C)=O [butanone] + N#CCc1ccccc1
[1], x2 = 0
Conditions | mass density [kg/m3] | speed of sound [m/s] | viscosity [mPa·s]
– | 789.2 | 1157 | 0.316

CCCC(C)=O [pentan-2-one]
[2]
Conditions | mass density [kg/m3] | speed of sound [m/s] | viscosity [mPa·s]
– | 790.8 | 1179 | 0.394

CCCC(C)=O [pentan-2-one] + N#CCc1ccccc1
[1], x2 = 0
Conditions | mass density [kg/m3] | speed of sound [m/s] | viscosity [mPa·s]
– | 790.8 | 1179 | 0.394

CCC(=O)CC [pentan-3-one]
[2]
Conditions | mass density [kg/m3] | speed of sound [m/s] | viscosity [mPa·s]
– | 800 | 1185 | 0.371

CCC(=O)CC [pentan-3-one] + N#CCc1ccccc1
[1], x2 = 0
Conditions | mass density [kg/m3] | speed of sound [m/s] | viscosity [mPa·s]
– | 800 | 1185 | 0.371
